Tests used:
[1] = biological target: T1, H-2Kb (Mus musculus, UniProt P01901); assay: MHC-I stabilization assay using TAP-deficient RMA/S cells; format: cell-based, murine
T1 construct: its ability to stabilize MHC-I in the H-2Kb-expressing TAP-deficient RMA/S cell line; endogenous in cells; host or cells: RMA/S cells (murine, TAP-deficient)
T1 sequence (P01901 22-369): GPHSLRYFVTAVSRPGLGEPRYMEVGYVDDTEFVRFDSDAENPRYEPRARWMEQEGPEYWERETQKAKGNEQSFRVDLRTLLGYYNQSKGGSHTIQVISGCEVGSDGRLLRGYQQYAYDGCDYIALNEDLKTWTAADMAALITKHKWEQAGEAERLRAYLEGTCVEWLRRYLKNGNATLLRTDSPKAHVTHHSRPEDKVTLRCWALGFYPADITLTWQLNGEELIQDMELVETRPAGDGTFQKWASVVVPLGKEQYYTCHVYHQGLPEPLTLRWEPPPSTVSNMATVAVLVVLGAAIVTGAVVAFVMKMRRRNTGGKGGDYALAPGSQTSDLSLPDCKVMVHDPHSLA
T1 sequence (P01887 21-119 partner): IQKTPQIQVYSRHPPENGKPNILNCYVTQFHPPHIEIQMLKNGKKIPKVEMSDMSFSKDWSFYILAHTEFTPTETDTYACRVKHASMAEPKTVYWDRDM
Procedure: (§1) To test peptide binding to murine H-2Kb or human HLA-A*02:01, TAP-deficient RMA/S and T2 cells were used, respectively, as previously reported (59, 60). […] T2 cells (62) were serum-starved in serum-free RPMI media overnight and […] at indicated final concentrations for 16 hours before measuring HLA-A*02:01 levels by flow cytometry (BD; Clone BB7.2). The […] (SEQ ID NO. 287) peptide was acquired as a custom order from Genscript.

[2] = system: C57BL/6J mice; assay: Peptide immunization (Titermax adjuvant) and IFNγ ELISpot of CD8+ T cells from draining lymph nodes; format: in vivo, mouse; settings: for CALR9p2-specific CD8+ T cell response: peptide emulsified in Titermax adjuvant, secondary restimulation with CALR9p2
Procedure: (§2) All peptides were purchased as custom peptide synthesis orders from GenScript at a purity of >98% and resuspend at 10 mg/mL in DMSO (Sigma). For peptide vaccines, peptides were diluted in PBS and emulsified with Titermax® (Titermax USA, Inc) at a 1:1 ratio immediately prior to immunization, such that each dose was composed of 10 μg peptide in a total volume of 25 uL. In control (DMSO) immunization, an equivalent volume of DMSO is substituted for the diluted peptide in the TiterMax® emulsion. For subsequent in vitro assays, draining inguinal and popliteal lymph nodes were collected at indicated time points and CD8+ T cells were isolated using positive magnetic sorting using mouse CD8a (Ly-2) MicroBeads (Miltenyi Biotec). DNA vaccines were performed using a gene gun as previously described (27, 63) according to indicated time points. Briefly, mice received four injections (400 lbs/inch2) of DNA-coated gold particles into the abdominal region of the skin for a total 4 μg of DNA per dose. DNA plasmids encoding the wildtype or 52 base-pair deletion CALRMUT sequences fused with the flag sequence are as previously described (64). For pING-OVA, the full-length chicken ovalbumin sequence was cloned into the pING plasmid (65). CD8+ T cells were collected as before, but only from draining inguinal lymph nodes. To test for antigen-specificity, the mouse IFNγ ELISpot set (BD) was used according to the manufacturer's instructions. Briefly, CD8+ T cells were frozen immediately after purification in FBS containing 10% DMSO, thawed one day prior to restimulation and allowed to recover overnight in 20 U/mL IL-2 (Peprotech) RPMI-1640 medium containing 10% fetal bovine serum (FBS), Na-Pyruvate, L-glutamine and Penicillin/Streptomycin. As a source of antigen-presenting cells (APCs), splenocytes from naïve mice were depleted of T cells using magnetic microbeads for CD8a (Ly2) and CD4 (L3T4) (Miltenyi Biotec), pulsed for one hour with 100 μg/mL peptide at 37° C. followed by a wash. For each well, 105 CD8+ T cells were co-culture with 1×105-3×105 peptide-pulsed APCs and incubated for approximately 18 hours. Spots were counted using the ImmunoSpot analyzer (Cellular Technology Limited).

[3] = system: peptide-pulsed B16 cells; assay: Killing assay of peptide-pulsed B16 cells by CD8+ T cells isolated from peptide-immunized mice; format: cell-based, mouse; settings: CD8+ T cells from mice immunized with a single dose
[4] = system: CD8+ T cells; assay: CALR9p2(T5F)-tetramer staining and flow cytometry of CD8+ T cells from immunized mice; format: in vivo, mouse
[5] = system: RMA/SpER-CALR9p2 tumors; assay: Tumor growth experiments with RMA/SpER-CALR9p2 tumors; format: in vivo, mouse
Procedure: as §2
RMA/S cells were maintained in RPMI 1640 medium supplemented with 7.5% inactivated FBS, 1×non-essential amino acids and 2 mM L-glutamine. The DNA sequence encoding the CALR9p2 peptide (bold) was cloned into the PresentER-IRES-GFP (38) construct using the following oligo:
following SfiI digestion and T4 ligation (New England Biolabs). The resulting construct was used to generate retrovirus by co-transfection with pCL-Ampho into ecotropic Pheonix cells (ATCC). Viral supernatants were collected at 48 and 72 hours, pooled and Retro-X Concentrator (Takara Bio USA)-concentrated retrovirus was used to transduce RMA/S cells by spinoculation using polybrene (Sigma). GFP-positive cells were FACS sorted (BD FACSAria III) and cultured in 4 μg/mL puromycin (Gibco) media. A total of 5×10^6 cells were injected subcutaneously in the flank of mice. For anti-PD1 treatment, 250 μg of RMP1-14 was injected intra-peritoneally in PBS at indicated time points.

[6] = biological target: T2, HLA-A*02:01 (Homo sapiens, UniProt P04439, D140Y/D185E/D98H/E176V/E277Q/G131W/G231S/I119V/I121R/I166T/I218V/L300P/L318F/N151K/N90K/P208A/P217A/Q86G/Q94H/R138H/R169H/T345S); assay: MHC-I stabilization assay using human TAP-deficient T2 cells; format: cell-based; settings: flow cytometry
T2 construct: endogenous in cells; host or cells: T2 cells (human, TAP-deficient)
Procedure: as §1

[7] = system: PBMCs from healthy HLA-A*02:01 individuals; assay: Human PBMC in vitro restimulation, IFNγ+ CD8+ T cells by intracellular staining; format: cell-based; settings: six healthy donors; significant (P<0.05) or trending (P<0.30)
Procedure: Freshly isolated or thawed cryopreserved healthy donor PBMCs were restimulated with cytokines and peptides as previously described (14). Briefly, on day 0, PBMCs were resuspended in X-VIVO15 media (Lonza) and seeded at 105 per well of a 96 U-bottom plate with 1000 IU/mL GM-CSF (Sanofi), 500 IU/mL IL-4 (R&D Systems) and 50 ng/mL Flt3L (R&D Systems). On day 1, media was refreshed with 0.1 μg/mL LPS (Invivogen), 10 μM R848 (Invivogen), 5 μg/mL IL-10 (R&D Systems) and 1 μg/mL of indicated peptides, and incubated for 24 hours. The CMV, EBV, Flu, Tetanus (CEFT) and the myelin oligodendrocyte glycoprotein (MOG) peptide pools (JPT Technologies) were used as positive and negative controls, respectively. On days 2 and 5, half the media was refreshed with RPMI (Gibco) containing 10% human serum (Gemini Bio-Products), 10 ug/ml gentamycin (Gibco), HEPES (Gibco), GlutaMAX (Gibco) and hIL-2 and hIL-7 to a final concentration of 10 IU/mL and 10 ng/mL, respectively (R&D Systems). On day 8, the media was refreshed without cytokines. On day 10, PBMCs were restimulated with corresponding peptides in the presence of 1 μg/mL of anti-hCD28 and anti-hCD49d (BD Biosciences). As controls, some cells were stimulated with PMA (Sigma-Aldrich, 50 ng/mL) and ionomycin (Sigma-Aldrich, 1 μg/mL). […] Data was acquired using the BD Fortessa and the data was analyzed on FlowJo V10 (TreeStar). […]

[8] = biological target: T3, murine H-2Kb on TAP-deficient RMA/S cells (murine, UniProt P01887 21-119; P01901 22-305); assay: H-2Kb stabilization assay on RMA/S cells, flow cytometry
T3 construct: whole, on cells;extracellular; MHC class I molecule; surface level read with antibody clone AF6-88.5 by flow cytometry
T3 sequence (MHC heavy, looked up): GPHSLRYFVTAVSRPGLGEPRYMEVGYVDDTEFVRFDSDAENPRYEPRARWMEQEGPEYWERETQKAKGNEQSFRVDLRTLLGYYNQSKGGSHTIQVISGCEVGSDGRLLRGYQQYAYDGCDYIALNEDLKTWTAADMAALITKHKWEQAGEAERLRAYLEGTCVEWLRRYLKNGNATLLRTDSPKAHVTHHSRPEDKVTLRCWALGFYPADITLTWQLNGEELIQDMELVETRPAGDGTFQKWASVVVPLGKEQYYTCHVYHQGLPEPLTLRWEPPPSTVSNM
T3 sequence (b2m, looked up): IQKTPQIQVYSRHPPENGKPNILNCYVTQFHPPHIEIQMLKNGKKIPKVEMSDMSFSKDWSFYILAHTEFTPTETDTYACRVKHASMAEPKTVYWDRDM

[9] = biological target: T3, murine H-2Kb on TAP-deficient RMA/S …; assay: H-2Kb stabilization assay on RMA/S cells in absence of serum, flow cytometry
From the text: To test peptide binding to murine H-2Kb or human HLA-A*02:01, TAP-deficient RMA/S and T2 cells were used, respectively, as previously reported (59, 60).

[10] = initial CALR9p2(T5F) followed by two CALR9p2 boosts
[11] = two doses of CALR9p2(T5F) and a final CALR9p2 boost
[12] = prophylactic: three doses prior to tumor implantation, vs adjuvant alone
[13] = therapeutic: multiple doses after tumors allowed to grow, vs adjuvant alone

Molecule: RMMRFKMRM [CALR9p2(T5F)]
- fold H-2Kb stabilization compared to CALR9p2 ([1]; absence of serum): tenfold
- CD8+ T cell response to CALR9p2(T5F) [2, 10]: very small response to the CALR9p2(T5F) peptide
- cross-reactive CD8+ T cell response to CALR9p2 [2, 10]: no detectable cross-reactive CD8+ T cell responses to CALR9p2 in vitro
- CALR9p2-specific CD8+ T cell response [2]: elicited a CD8+ T cell capable of cross-reacting with CALR9p2 in vitro
- CD8+ T cell response to CALR9p2(T5F) [2, 11]: intermediate response to CALR9p2(T5F)
- cross-reactive CD8+ T cell response to CALR9p2 [2, 11]: no detectable cross-reactive CD8+ T cells
- killing of tumor cells pulsed with the CALR9p2 peptide [3]: killing tumor cells pulsed with the CALR9p2 peptide
- IFNγ restimulation by CALR9p2 of CALR9p2(T5F)-tetramer-specific CD8+ T cells ([4]; CD8+ T cells from CALR9p2(T5F)-immunized mice): The only CALR9p2-potentiated CD8+ T cells were those also staining for the CALR9p2(T5F)-tetramer
- Tim3 and Pd1 levels of CALR9p2-specific vs CALR9p2(T5F)-specific CD8+ T cells ([4]; after restimulation): equal levels of Tim3 and Pd1
- survival ([5]; prophylactic: three doses prior to tumor implantation): differences in survival were not significant
- tumor growth [5, 12]: grew significantly slower
- effect of the vaccine ([5]; therapeutic, administered with immune checkpoint blockade using a PD-1 antibody): even more prominent
- survival [5, 13]: improved survival
- tumor growth [5, 13]: tumors grew significantly slower

Molecule: RMMRTKMRM [CALR9p2, 9mer CALRMUT peptide starting at position 2, parental native peptide]
- binding to HLA-A*02:01 (stabilization) [6]: weak binding signal compared to DMSO control
- CD8+ T cell responses (IFNγ) to CALR9p2 alone [7]: three of the six healthy donors
- H-2Kb stabilization ([1]; in the presence of serum): did not elicit detectable H-2Kb stabilization
- H-2Kb stabilization ([1]; serum omitted): poor but still detectable binding
- peptide concentration at which H-2Kb was stabilized ([1]; serum omitted, only the highest concentration): 100 µg/mL
- CALR9p2-specific CD8+ T cell response [2]: did not elicit any CALR9p2-specific CD8+ T cell response
- tumor growth [5, 12]: grew at the same rate

Molecule: SIINFEKL [chicken ovalbumin (OVA)-derived peptide, positive control]
- H-2Kb stabilization ([1]; in the presence of serum): strong binding

Molecule: SIINFEKL (Custom order from Genscript) [chicken ovalbumin (OVA)-derived peptide SIINFEKL]
- binding result [8]: binds

Molecule: RMMRFKMRM (Custom synthetic peptide) [CALR9p2(T5F) heteroclitic peptide (RMMRFKMRM)]
- fold H-2Kb stabilization compared to CALR9p2 [9]: ~10 fold

— patent US20230139506A1, “HETEROCLITIC CANCER VACCINES” (MEMORIAL SLOAN KETTERING CANCER CENTER, priority 2020, published 2023)
